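Following 48 hours of exposure in 96-well plates, responses at five concentrations were used to interpolate endpoints linearly. TGI denotes the concentration required for complete inhibition of growth.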
Key:
Test in all cases: NCI anticancer screen, dose series, 48 h
A498 renal = system: A498 renal
ACHN renal = system: ACHN renal
CAKI-1 renal = system: CAKI-1 renal
CCRF-CEM leukemia = system: CCRF-CEM leukemia
COLO 205 colon = system: COLO 205 colon
HOP-92 NSCLC = system: HOP-92 NSCLC
HS 578T breast = system: HS 578T breast
HT29 colon = system: HT29 colon
LOX IMVI melanoma = system: LOX IMVI melanoma
MALME-3M melanoma = system: MALME-3M melanoma
NCI-H226 lung = system: NCI-H226 lung
NCI-H460 lung = system: NCI-H460 lung
OVCAR-8 ovarian = system: OVCAR-8 ovarian
SF-539 CNS = system: SF-539 CNS
SK-MEL-2 melanoma = system: SK-MEL-2 melanoma
SK-OV-3 ovarian = system: SK-OV-3 ovarian
SN12C renal = system: SN12C renal

Structure (SMILES) | TGI (A498 renal) [µM] | TGI (ACHN renal) [µM] | TGI (CAKI-1 renal) [µM] | TGI (CCRF-CEM leukemia) [µM] | TGI (COLO 205 colon) [µM] | TGI (HOP-92 NSCLC) [µM] | TGI (HS 578T breast) [µM] | TGI (HT29 colon) [µM] | TGI (LOX IMVI melanoma) [µM] | TGI (MALME-3M melanoma) [µM] | TGI (NCI-H226 lung) [µM] | TGI (NCI-H460 lung) [µM] | TGI (OVCAR-8 ovarian) [µM] | TGI (SF-539 CNS) [µM] | TGI (SK-MEL-2 melanoma) [µM] | TGI (SK-OV-3 ovarian) [µM] | TGI (SN12C renal) [µM]
CSC(=S)Nc1cccc(C)n1 | > 100 | > 100 | > 100 | > 100 | > 100 | > 100 | > 100 | > 100 | > 100 | > 100 | > 100 | > 100 | > 100 | > 100 | > 100 | > 100 | > 100
Fc1ccc(N2C(=S)SC(=Nc3ccccc3)C2=Nc2ccccc2)cc1 | > 100 | > 100 | > 100 | > 46.4 | > 100 | > 100 | > 100 | > 100 | > 100 | > 100 | > 100 | > 100 | > 100 | > 100 | > 100 | > 100 | > 100
Nc1ncnc2oc(C3OC(COC(=O)c4ccccc4)C(OC(=O)c4ccccc4)C3OC(=O)c3ccccc3)nc12 (stereo not drawn) | 82.6 | > 100 | > 100 | > 100 | > 100 | > 100 | > 100 | > 100 | > 100 | > 100 | > 100 | > 100 | > 100 | > 100 |  | > 100 | > 100
N[C@H](C(=O)O)[C@@H]1CC(Br)=NO1 | > 100 | > 100 | > 100 | > 100 | > 100 | > 100 | > 100 | > 100 | > 100 | > 100 | > 100 | > 100 | > 100 | > 100 | > 100 | > 100 | > 100
COc1ccc(OC)c(CNc2ccc(C(=O)O)cc2)c1 | > 100 | > 100 | > 100 | > 100 | > 100 | > 100 | > 100 | > 100 | > 100 | > 100 | > 100 |  | > 100 | > 100 | > 100 | > 100 | 
O=[N+]([O-])/C(C(Cl)=C(Cl)Cl)=C(/Cl)SCc1ccccc1 | 40.8 | 9.06 | 12.5 | 0.448 | 4.49 | 9.01 | 9.67 | 27.9 | 23.4 | 6.68 | 56.7 | 31.2 | 3.04 | 32.3 | 47.4 | 35.6 | 12.9
NC(=O)C(=CNC(=S)Nc1ccccc1)C(N)=O | > 100 | > 100 | > 100 | > 100 | > 100 | > 100 | > 100 | > 100 | > 100 | > 100 | > 100 | > 100 | > 100 | > 100 | > 100 | > 100 | > 100
O=C(NC1CCN(Cc2ccccc2)CC1)c1ccc(I)cc1 | > 100 | > 100 | > 100 | > 100 | > 100 | > 100 | > 100 | > 100 | > 100 |  | > 100 | > 100 | > 100 | > 100 | > 100 | > 100 | > 100
CCOP1(=O)CC(C)=C(Cl)C(O)C1 (stereo not drawn) | > 100 | > 100 | > 100 | > 100 | > 100 | > 100 | > 100 | > 100 | > 100 | > 100 | > 100 | > 100 | > 100 | > 100 | > 100 | > 100 | > 100
C[C@]12C[C@@H](OC(=O)[C@]1(C)O)[C@@H]([C@]1(O)CC[C@H]3[C@@H]4C[C@H]5O[C@]56C[C@H]5O[C@H]5C(=O)[C@]6(C)[C@H]4CC[C@@]31C)C2 | > 50 | > 50 | > 50 | > 50 | > 50 | > 50 | > 50 | > 50 |  | > 5 | > 50 | > 50 | > 50 | > 50 | > 50 | > 50 | > 50
CC1(C)OC(=S)N(c2ccccc2)C12C=Cc1ccccc1O2 (stereo not drawn) | > 100 | > 100 | > 100 | > 100 | > 100 | > 100 | > 100 | > 100 | > 100 |  | > 100 | > 100 | > 100 |  | > 100 | 73 | > 100
CC(=O)OCC(=O)O[C@@H]1[C@H]2[C@@H](OC(=O)c3ccccc3)[C@@H](C)C[C@]2(O)[C@H](OC(C)=O)[C@@]2(C)C(OC(C)=O)[C@]1(OC(C)=O)C[C@H]1C(=O)C(C)(C)C[C@@H]12 (stereo partly drawn) | > 50 | > 50 | > 50 | > 50 | > 50 | > 50 | > 50 | > 50 | > 50 | > 50 | > 50 | > 50 | > 50 | > 50 | > 50 | > 50 | > 50
c1cc2nnc1SCCCSc1ccc(nn1)SCCCS2 | > 100 | > 100 | > 100 | > 100 | > 81.3 | > 100 | 99.2 | > 100 | > 48.4 | > 100 | > 94.1 | > 100 | > 100 | > 93.9 | > 86.8 | 92.3 | > 95.6
Clc1cc(Cl)cc(N=C/C=C/Nc2cc(Cl)cc(Cl)c2)c1 | 57.3 | 44.7 | 38.2 | 60.9 | 30.2 | > 100 | > 100 | 28.5 |  | > 100 | 32.8 | 43.5 | 42.5 | 58.9 | 40.7 | 89 | 38.8
COc1cc2c(c(O)c1OC)C(=O)[C@@H]1CCC(=O)N1C2 | > 100 | > 100 | > 100 | > 100 | > 100 | > 100 | > 100 | > 100 | > 100 | > 100 | > 100 | > 100 | > 100 | > 100 | > 100 | > 100 | > 100
Cc1cc(N(CCC#N)CCC#N)ccc1/C(N=Nc1cccc(Cl)c1)=N/NC(=O)c1cc(Cl)ccc1O | 53.1 | 42 | 44.8 | 37.2 | 17.8 | 43.1 | > 100 | 44.2 | 42.2 | 28.1 | 84.2 | 31.9 | 49.2 | > 100 | 36.1 | 90.6 | 61.3
COC(=O)c1cc2c(c3c1CC(Cc1ccccc1)C3=O)CCC2 (stereo not drawn) | > 100 | > 100 |  | > 100 | > 100 | 78 | > 100 | > 100 | > 100 | > 100 | > 100 | > 100 | > 100 | > 100 |  | > 100 | > 100
CCC(=O)C(CCN1CCC2(CCCc3ccccc32)CC1)(c1ccccc1)c1ccccc1 | 6.11 | 11.3 | 14.5 | > 100 | 2.91 | 4.03 | 7.02 | 6.01 | 2.16 | 3.76 | 6.58 | 9.4 | 14 | 7.3 | 4.34 | 18.2 | 10.2
CC(C)(C)C1=CC(C)(n2[nH]c(=O)n(-c3ccccc3)c2=O)C=C(C(C)(C)C)C1=O | > 100 | > 100 | > 100 |  | > 100 | > 100 | > 100 | > 100 | > 100 | > 100 | > 100 | > 100 | > 100 | > 100 | > 100 | > 100 | > 100
Cc1ccc(NC(=O)c2cc(S(=O)(=O)Nc3n[nH]c(=O)[nH]3)c(SSc3cc(Cl)c(C(=O)Nc4ccc(C)cc4)cc3S(=O)(=O)Nc3n[nH]c(=O)[nH]3)cc2Cl)cc1 | > 100 | > 100 | > 100 | > 100 | > 100 | > 100 | > 100 | > 100 | > 100 | > 100 | > 100 | > 100 | > 100 |  | > 100 | > 100 | > 100
COC(=O)C(CCSC)NC(=O)CNC(=O)CSc1nnc(COc2ccc(Cl)cc2)n1-c1ccccc1 (stereo not drawn) | 95.7 | 30.7 |  | 26.1 | 33.6 | 32 | 53.1 | 31.5 | 23.8 | 32.7 | 36.9 | 31.7 |  | 35 | 28.7 | 34 | 32.4
COC(=O)[C@]1(NC(=O)c2ccccc2)C[C@H]1C=O | > 100 | > 100 | > 100 | 51.5 | > 100 | > 100 | > 100 | > 100 | > 100 | > 100 | > 100 | 77 | > 100 | > 100 | > 100 | > 100 | > 100
COc1ccc(N2C(=O)/C(=C\c3cc(OC)c(OC)c(OC)c3)SC2c2ccccc2)cc1 (stereo not drawn) | > 100 | > 100 | > 100 | > 100 | > 100 | > 100 | > 100 | > 100 | > 100 | > 100 | > 100 | > 100 | > 100 | > 100 | > 100 | > 100 | > 100
Cc1ccc2nc(N/N=C/c3sccc3C)cc(C)c2c1 | > 100 | > 100 | > 100 | > 100 | > 100 | > 100 | > 100 | > 100 | > 100 |  | > 100 |  | > 100 |  | > 100 | > 100 | > 100
CCc1c(C)c(C#N)c(=S)n(C2OC(COC(C)=O)C(OC(C)=O)C(OC(C)=O)C2OC(C)=O)c1-c1ccccc1 (stereo not drawn) | > 31.6 | > 31.6 | > 100 | > 100 | > 31.6 | > 31.6 | 68.2 | > 31.6 | > 31.6 | > 31.6 | > 31.6 | > 31.6 | > 31.6 | > 31.6 | > 31.6 |  | > 31.6
CC1=NC(=Cc2ccccc2O)C(=O)N1n1c(-c2ccccc2)nc2ccccc2c1=O | > 100 | > 100 |  | > 100 | > 100 | > 100 | > 100 | > 100 | > 100 | > 100 | > 100 | > 100 | > 100 | 87.3 |  | > 100 | > 100
O=C1C(Cl)C2(CC(/C=C/c3ccccc3)=NN2c2cccc(S(=O)(=O)O)c2)N1c1nc2ccccc2s1 (stereo not drawn) | 38.8 | 30.9 | 22.6 | 32.4 | 37.8 | 25.4 | > 100 | 37.2 | 13 | 33.3 | 56.2 | 46.6 | 25 | 35.3 | 40.9 |  | 36.1
